Literature values, collected in patent US12606521B2, “Methods of treating cancer” (Institute For Cancer Research, priority 2020, dated 2026).

Tested on: cancer cells
Settings: combination with decitabine

Cc1cc(C(C#N)c2ccc(Cl)cc2)c(Cl)cc1NC(=O)c1cc(I)cc(I)c1O (stereo not shown) [closantel]
Interaction with decitabine in killing cancer cells: synergizes with decitabine
